Experimental data published in PubChem BioAssay (NCI).
Several values for one entry are separate records, joined by “and”; a condition that tells them apart may be missing. Equal values may be shown once.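 Five compound concentrations were applied to cells in 96-well plates for 48 hours; endpoints were derived by simple linear interpolation of the resulting dose-response curve. Abbreviation: GI50, concentration required for 50% inhibition of growth. TGI: total growth inhibition.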

What was measured:
Experiment in all cases: NCI tumour cell line growth inhibition, 48 h
COLO 205 colon = test system: COLO 205 colon
SNB-75 CNS = test system: SNB-75 CNS
UACC-257 melanoma = test system: UACC-257 melanoma
OVCAR-4 ovarian = test system: OVCAR-4 ovarian
SF-539 CNS = test system: SF-539 CNS
A549 NSCLC = test system: A549 NSCLC
RXF 393 renal = test system: RXF 393 renal
SF-295 CNS = test system: SF-295 CNS
DLD-1 colon = test system: DLD-1 colon
LXFL 529 NSCLC = test system: LXFL 529 NSCLC
HL-60(TB) leukemia = test system: HL-60(TB) leukemia
HOP-92 NSCLC = test system: HOP-92 NSCLC
786-0 renal = test system: 786-0 renal
M14 melanoma = test system: M14 melanoma
SR leukemia = test system: SR leukemia
HT29 colon = test system: HT29 colon
DMS 114 small cell lung = test system: DMS 114 small cell lung
ACHN renal = test system: ACHN renal
UO-31 renal = test system: UO-31 renal
SNB-19 CNS = test system: SNB-19 CNS
MOLT-4 leukemia = test system: MOLT-4 leukemia
NCI-H460 lung = test system: NCI-H460 lung
K-562 leukemia = test system: K-562 leukemia
NCI-H23 lung = test system: NCI-H23 lung
KM20L2 colon = test system: KM20L2 colon
A498 renal = test system: A498 renal
OVCAR-3 ovarian = test system: OVCAR-3 ovarian
SK-MEL-2 melanoma = test system: SK-MEL-2 melanoma
HCC-2998 colon = test system: HCC-2998 colon
SNB-78 CNS = test system: SNB-78 CNS
LOX IMVI melanoma = test system: LOX IMVI melanoma
DMS 273 small cell lung = test system: DMS 273 small cell lung
HCT-116 colon = test system: HCT-116 colon
RXF-631 renal = test system: RXF-631 renal
MALME-3M melanoma = test system: MALME-3M melanoma
RPMI-8226 leukemia = test system: RPMI-8226 leukemia
SK-MEL-5 melanoma = test system: SK-MEL-5 melanoma
OVCAR-8 ovarian = test system: OVCAR-8 ovarian
M19-MEL melanoma = test system: M19-MEL melanoma
U251 CNS = test system: U251 CNS
CAKI-1 renal = test system: CAKI-1 renal
KM12 colon = test system: KM12 colon
HOP-18 NSCLC = test system: HOP-18 NSCLC
EKVX NSCLC = test system: EKVX NSCLC
NCI-H226 lung = test system: NCI-H226 lung
XF 498 CNS = test system: XF 498 CNS
HOP-62 NSCLC = test system: HOP-62 NSCLC
HCT-15 colon = test system: HCT-15 colon
IGROV1 ovarian = test system: IGROV1 ovarian
UACC-62 melanoma = test system: UACC-62 melanoma
SN12C renal = test system: SN12C renal
TK-10 renal = test system: TK-10 renal
SF-268 CNS = test system: SF-268 CNS
NCI-H522 lung = test system: NCI-H522 lung
CCRF-CEM leukemia = test system: CCRF-CEM leukemia
SK-MEL-28 melanoma = test system: SK-MEL-28 melanoma
OVCAR-5 ovarian = test system: OVCAR-5 ovarian
SK-OV-3 ovarian = test system: SK-OV-3 ovarian
SW-620 colon = test system: SW-620 colon
PC-3 prostate = test system: PC-3 prostate
MDA-MB-231 breast = test system: MDA-MB-231 breast
MCF7 breast = test system: MCF7 breast
P388/ADR leukemia = test system: P388/ADR leukemia
T-47D breast = test system: T-47D breast
MDA-N = test system: MDA-N
BT-549 breast = test system: BT-549 breast
P388 leukemia = test system: P388 leukemia
DU-145 prostate = test system: DU-145 prostate
HS 578T breast = test system: HS 578T breast
SN12K1 renal = test system: SN12K1 renal
NCI/ADR-RES ovarian = test system: NCI/ADR-RES ovarian
MDA-MB-435 = test system: MDA-MB-435

Clc1cc2ns[s+]c2cc1Cl
TGI (COLO 205 colon): > 100 µM
TGI (SNB-75 CNS): > 64.2 µM
TGI (UACC-257 melanoma): > 100 µM
TGI (OVCAR-4 ovarian): > 100 µM
TGI (SF-539 CNS): > 100 µM
TGI (A549 NSCLC): > 100 µM
TGI (RXF 393 renal): > 100 µM
TGI (SF-295 CNS): > 100 µM
TGI (DLD-1 colon): > 56.5 µM
TGI (LXFL 529 NSCLC): > 100 µM
TGI (HL-60(TB) leukemia): > 87.2 µM
TGI (HOP-92 NSCLC): > 100 µM
TGI (786-0 renal): > 100 µM
TGI (M14 melanoma): > 100 µM
TGI (SR leukemia): > 100 µM
TGI (HT29 colon): > 100 µM
TGI (DMS 114 small cell lung): > 100 µM
TGI (ACHN renal): > 100 µM
TGI (UO-31 renal): > 91.7 µM
TGI (SNB-19 CNS): > 100 µM
TGI (MOLT-4 leukemia): > 100 µM
TGI (NCI-H460 lung): > 100 µM
TGI (K-562 leukemia): > 100 µM
TGI (NCI-H23 lung): > 100 µM
TGI (KM20L2 colon): > 100 µM
TGI (A498 renal): > 100 µM
TGI (OVCAR-3 ovarian): > 100 µM
TGI (SK-MEL-2 melanoma): > 100 µM
TGI (HCC-2998 colon): > 100 µM
TGI (SNB-78 CNS): > 100 µM
TGI (LOX IMVI melanoma): > 100 µM
TGI (DMS 273 small cell lung): > 100 µM
TGI (HCT-116 colon): > 100 µM
TGI (RXF-631 renal): > 100 µM
TGI (MALME-3M melanoma): > 100 µM
TGI (RPMI-8226 leukemia): > 100 µM
TGI (SK-MEL-5 melanoma): > 52 µM
TGI (OVCAR-8 ovarian): > 100 µM
TGI (M19-MEL melanoma): > 100 µM
TGI (U251 CNS): > 100 µM
TGI (CAKI-1 renal): > 100 µM
TGI (KM12 colon): > 100 µM
TGI (HOP-18 NSCLC): > 69.3 µM
TGI (EKVX NSCLC): > 100 µM
TGI (NCI-H226 lung): > 100 µM
TGI (XF 498 CNS): > 100 µM
TGI (HOP-62 NSCLC): > 81.7 µM
TGI (HCT-15 colon): > 100 µM
TGI (IGROV1 ovarian): > 100 µM
TGI (UACC-62 melanoma): > 100 µM
TGI (SN12C renal): > 100 µM
TGI (TK-10 renal): 98.9 µM
TGI (SF-268 CNS): > 100 µM
TGI (NCI-H522 lung): > 80.5 µM
TGI (CCRF-CEM leukemia): > 100 µM
TGI (SK-MEL-28 melanoma): > 100 µM
TGI (OVCAR-5 ovarian): > 100 µM
TGI (SK-OV-3 ovarian): > 100 µM
TGI (SW-620 colon): > 100 µM

OC(CBr)C(O)C(O)C(O)CBr (stereo unspecified)
TGI (COLO 205 colon): > 100 µM
TGI (PC-3 prostate): > 100 µM
GI50 (SNB-75 CNS): 13 µM and 51 µM
TGI (SNB-75 CNS): 68.4 µM and > 100 µM
TGI (MDA-MB-231 breast): > 100 µM
TGI (UACC-257 melanoma): > 100 µM
GI50 (MCF7 breast): 13.7 µM and 40.1 µM
TGI (MCF7 breast): > 100 µM
TGI (OVCAR-4 ovarian): > 100 µM
TGI (SF-539 CNS): > 100 µM
TGI (A549 NSCLC): > 100 µM
TGI (RXF 393 renal): > 100 µM
GI50 (SF-295 CNS): 23.2 µM and > 72.9 µM
TGI (SF-295 CNS): > 100 µM
TGI (DLD-1 colon): > 100 µM
TGI (HL-60(TB) leukemia): > 67.5 µM
GI50 (HOP-92 NSCLC): 35.8 µM and > 86.8 µM
TGI (HOP-92 NSCLC): > 100 µM
TGI (786-0 renal): > 67.9 µM
TGI (M14 melanoma): > 100 µM
TGI (SR leukemia): > 100 µM
TGI (HT29 colon): > 100 µM
TGI (DMS 114 small cell lung): > 100 µM
TGI (ACHN renal): > 100 µM
GI50 (UO-31 renal): > 100 µM
TGI (UO-31 renal): > 100 µM
GI50 (SNB-19 CNS): 36 µM and > 100 µM
TGI (SNB-19 CNS): > 100 µM
TGI (P388/ADR leukemia): > 51.9 µM
GI50 (MOLT-4 leukemia): 10.8 µM
TGI (MOLT-4 leukemia): > 30.4 µM
TGI (T-47D breast): > 100 µM
TGI (MDA-N): > 100 µM
TGI (NCI-H460 lung): > 100 µM
TGI (BT-549 breast): > 77 µM
TGI (K-562 leukemia): > 100 µM
GI50 (NCI-H23 lung): 12 µM and > 61.1 µM
TGI (NCI-H23 lung): > 100 µM
TGI (KM20L2 colon): > 100 µM
TGI (A498 renal): > 100 µM
TGI (OVCAR-3 ovarian): 97 µM and > 100 µM
TGI (SK-MEL-2 melanoma): > 100 µM
TGI (HCC-2998 colon): > 100 µM
TGI (SNB-78 CNS): > 100 µM
TGI (LOX IMVI melanoma): > 100 µM
TGI (P388 leukemia): > 32.4 µM
TGI (DMS 273 small cell lung): > 100 µM
TGI (DU-145 prostate): > 100 µM
GI50 (HCT-116 colon): 37.3 µM and > 100 µM
TGI (HCT-116 colon): > 100 µM
TGI (MALME-3M melanoma): > 100 µM
TGI (RPMI-8226 leukemia): > 100 µM
GI50 (SK-MEL-5 melanoma): > 100 µM
TGI (SK-MEL-5 melanoma): > 100 µM
TGI (OVCAR-8 ovarian): > 100 µM
TGI (M19-MEL melanoma): > 100 µM
TGI (U251 CNS): > 100 µM
GI50 (CAKI-1 renal): 9.66 µM and 44.7 µM
TGI (CAKI-1 renal): > 100 µM
TGI (HS 578T breast): > 100 µM
TGI (KM12 colon): > 100 µM
TGI (SN12K1 renal): > 100 µM
TGI (HOP-18 NSCLC): > 100 µM
TGI (EKVX NSCLC): > 100 µM
TGI (NCI-H226 lung): > 100 µM
GI50 (NCI/ADR-RES ovarian): > 100 µM
TGI (NCI/ADR-RES ovarian): > 100 µM
TGI (XF 498 CNS): > 100 µM
TGI (HOP-62 NSCLC): > 100 µM
GI50 (HCT-15 colon): > 100 µM
TGI (HCT-15 colon): > 100 µM
GI50 (IGROV1 ovarian): 49.4 µM and > 100 µM
TGI (IGROV1 ovarian): > 100 µM
GI50 (UACC-62 melanoma): 19.9 µM and 9.75 µM
TGI (UACC-62 melanoma): > 75.4 µM and 65.1 µM
GI50 (SN12C renal): 15.3 µM and 57.5 µM
TGI (SN12C renal): > 100 µM
TGI (TK-10 renal): > 100 µM
GI50 (SF-268 CNS): > 40.6 µM and 19.3 µM
TGI (SF-268 CNS): > 100 µM
TGI (MDA-MB-435): > 100 µM
TGI (NCI-H522 lung): > 100 µM
TGI (CCRF-CEM leukemia): > 100 µM
TGI (SK-MEL-28 melanoma): > 100 µM
TGI (OVCAR-5 ovarian): > 100 µM
TGI (SK-OV-3 ovarian): > 100 µM
TGI (SW-620 colon): > 100 µM
